Laboratory results as given in article PMC9551036, “A selective and orally bioavailable VHL-recruiting PROTAC achieves SMARCA2 degradation in vivo” (Nature Communications, 2022).
Where “and” joins values, the source holds several entries; their conditions need not be identical. Equal values may be shown once. Read-outs that look alike come from different tables or passages of the source.

Experiments:
[1] = Cell viability assay (CellTiter Glo) in NCI-H1568; format: cell-based, human; settings: human, NCI-H1568 cells, NCI-H1568; log10 conc -5.90309 mol/l;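 note: percent of DMSO-treated control cells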
Experimental: 500–2000 cells were seeded in white, clear bottom 96-well plates (Corning or Perkin Elmer) in 180–200 µl medium per well. The next day, compounds were added using a digital dispenser and a T0 sample was measured for reference. […], and viability (luminescence) was measured using CellTiter Glo or CellTiter Glo 2.0 (Promega) according to manufacturer’s instructions after equilibrating cells and reagents at room temperature and 10–20 min incubation time while shaking.

A549 tumour xenograft = experiment: A549 xenograft tumour growth; format: in vivo, mouse; settings: for Tumor volume: Fig4g, 80 mg/kg, qd, per animal
Experimental: To establish subcutaneous tumours, mice were injected with 5 × 10^6 NCI-H1568 in PBS with 5% FCS or with 1 × 10^7 A549 cells in PBS with 5% FCS. Tumour diameters were measured with a caliper three times a week. The volume of each tumour (in mm^3) was calculated according to the formula [tumour volume = length × diameter^2 × π/6]. To monitor side effects of treatment, mice were inspected daily for abnormalities and body weight was determined daily after the start of treatment. Animals were sacrificed when the tumours reached a size of 1500 mm^3. Mice were randomised into treatment groups when the average tumour size reached ~210–220 mm^3. Group sizes were calculated individually for each tumour model based on tumour growth during model establishment experiments. A power analysis was performed using a sample size calculator (https://www.stat.ubc.ca/~rollin/stats/ssize/n2.html). For both models used in the study, 10 mice per group were used for each experiment. All administrations were dosed with 10 ml/kg (s.c. and oral). Control mice were dosed subcutaneously with 10% HP-β-CD in 50% Ringer solution and orally with 15% HP-β-CD, that means the control mouse treatment was corresponding to the solvent of the compounds. Compound 6 was dosed subcutaneously either in a d1-4 q3d, d6-8 q2d, d11-13 q2d treatment (Treatment 1) or a q3 or 4d treatment (Treatment 2).
For the evaluation of the statistical significance of tumour growth inhibition, a one-tailed nonparametric Mann-Whitney-Wilcoxon U-test was performed, based on the hypothesis that an effect would only be measurable in one direction (i.e. expectation of tumour inhibition but not tumour stimulation). Analysis was performed on the day indicated for each experiment. The p values obtained from the U-test were adjusted using the Bonferroni-Holm correction. By convention, p values ≤0.05 indicate significance of differences.

SMARCA4 = SMARCA4 (Homo sapiens, UniProt P51532); experiment: SMARCA4 capillary electrophoresis protein assay in other cell lines (HCT116, LU99, HCC-364, HCT-15, HCC4006, SK-N-AS); format: cell-based; design: endogenous in cells; host or cells: RKO, HCT116, LU99, HCC-364, HCT-15, HCC4006, SK-N-AS; settings: for Bottom (best-fit value, % protein remaining) / DC50 / HillSlope: four-parameter fit; for LogEC50: log10 of concentration in mol/l; for DC50: protein degradation, read-out: EC50 (the source's name)
Sequence of SMARCA4 (P51532 whole entry): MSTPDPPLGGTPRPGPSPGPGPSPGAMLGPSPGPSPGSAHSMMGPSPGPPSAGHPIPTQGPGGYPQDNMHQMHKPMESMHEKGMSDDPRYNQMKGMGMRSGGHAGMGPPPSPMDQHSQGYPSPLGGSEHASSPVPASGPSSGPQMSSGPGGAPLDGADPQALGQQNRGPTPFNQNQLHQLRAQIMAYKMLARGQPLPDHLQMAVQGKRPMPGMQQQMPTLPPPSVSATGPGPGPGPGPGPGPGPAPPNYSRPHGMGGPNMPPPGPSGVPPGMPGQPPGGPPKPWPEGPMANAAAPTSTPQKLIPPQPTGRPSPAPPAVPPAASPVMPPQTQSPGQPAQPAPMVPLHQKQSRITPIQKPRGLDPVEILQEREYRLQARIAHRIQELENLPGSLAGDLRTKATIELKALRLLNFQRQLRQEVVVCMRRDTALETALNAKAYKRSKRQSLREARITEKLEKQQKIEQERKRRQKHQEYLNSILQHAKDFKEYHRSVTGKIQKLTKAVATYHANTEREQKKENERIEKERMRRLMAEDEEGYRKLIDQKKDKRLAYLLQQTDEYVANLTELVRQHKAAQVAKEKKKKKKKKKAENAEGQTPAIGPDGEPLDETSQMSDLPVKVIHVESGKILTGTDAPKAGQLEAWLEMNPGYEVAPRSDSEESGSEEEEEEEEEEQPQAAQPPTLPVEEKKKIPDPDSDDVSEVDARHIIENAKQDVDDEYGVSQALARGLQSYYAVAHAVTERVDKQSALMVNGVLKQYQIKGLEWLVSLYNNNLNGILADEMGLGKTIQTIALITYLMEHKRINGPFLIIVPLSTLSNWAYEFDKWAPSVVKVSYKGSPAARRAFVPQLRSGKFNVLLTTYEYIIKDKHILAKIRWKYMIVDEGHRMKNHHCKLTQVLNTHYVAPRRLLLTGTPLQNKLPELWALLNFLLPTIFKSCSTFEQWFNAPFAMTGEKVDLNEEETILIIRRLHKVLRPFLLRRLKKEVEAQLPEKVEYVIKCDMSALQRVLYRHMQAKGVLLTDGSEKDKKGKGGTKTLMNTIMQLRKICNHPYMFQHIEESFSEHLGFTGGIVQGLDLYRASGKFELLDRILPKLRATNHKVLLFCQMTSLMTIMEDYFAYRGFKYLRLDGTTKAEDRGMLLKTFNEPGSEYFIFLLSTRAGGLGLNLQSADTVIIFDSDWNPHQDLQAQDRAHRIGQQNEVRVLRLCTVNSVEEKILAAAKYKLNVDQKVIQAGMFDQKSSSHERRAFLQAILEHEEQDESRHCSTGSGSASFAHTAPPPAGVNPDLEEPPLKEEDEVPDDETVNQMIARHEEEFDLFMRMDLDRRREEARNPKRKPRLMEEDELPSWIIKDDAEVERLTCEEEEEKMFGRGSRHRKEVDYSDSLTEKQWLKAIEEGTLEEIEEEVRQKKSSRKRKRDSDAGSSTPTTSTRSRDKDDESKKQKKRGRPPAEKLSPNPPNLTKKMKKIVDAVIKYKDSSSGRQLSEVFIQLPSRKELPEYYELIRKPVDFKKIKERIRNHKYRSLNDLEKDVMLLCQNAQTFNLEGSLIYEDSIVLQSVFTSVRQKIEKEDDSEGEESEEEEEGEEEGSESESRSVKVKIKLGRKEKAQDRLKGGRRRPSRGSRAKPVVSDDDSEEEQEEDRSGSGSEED
Experimental: 130,000–200,000 cells were seeded in 24-well plates and incubated until settled down or overnight. Compounds were dissolved in DMSO and added to cells in indicated concentrations using a digital dispenser following an optional media change. […] For SMARCA2/4 half-life determination, 150,000 or 200,000 cells were seeded in 24-well plates. […] For SMARCA2/4 re-synthesis measurements, 200,000 cells were seeded in 24-well plates. […] Medium was removed, cells were washed with PBS and lysed with 80 µl Lysis Buffer (MSD Tris Lysis Buffer (#R60TX-2) + Halt Inhibitor Cocktail (100x) + Benzonase 0.5 µL/ml). Samples were frozen at −80 °C and thawed at room temperature before use. Samples were transferred to a V-bottom plate and insoluble debris was pelleted by centrifugation for 5 min at maximum speed. The supernatant was transferred to a fresh plate. Master Mix and Ladder were prepared according to manufacturer’s instructions for 12–230 kDa Wes Separation Module, 8 × 25 capillary cartridges, Protein Simple #SM-W004 with Anti-Rabbit Detection Module for Wes, Peggy Sue or Sally Sue, Protein Simple #DM-001. 4.8 µl lysate were mixed with 1.2 µl Master Mix to achieve a protein concentration of ~0.5 µg/µl. […] Wes plates were prepared and run according to manufacturer’s instructions. Proteins were quantified with accompanying Compass Software. SMARCA2/4 protein levels were normalised to GAPDH. […] Where applicable, curves were fitted using a 4-parametric logistic model.

Cc1ncsc1-c1ccc(C(CCC(C)CCN2CCC(c3ccc4c(c3)n(C3CCCC3)c3nc(=O)c5c(Br)cccc5n43)CC2)NC(=O)C2CC(O)CN2C(=O)C(NC(=O)C2(F)CC2)C(C)(C)C)cc1 (stereo not drawn) [ACBI2]
viability at 1.25 µM [1]: 0.898%
TGI (A549 tumour xenograft; A549 xenograft, 80 mg/kg p.o. once daily, day 21): 47%
Tumor volume (A549 tumour xenograft; day 1): 123.81 mm3 and 132.68 mm3 and 160.75 mm3 and 185.14 mm3 and 199.53 mm3 and 221.26 mm3 and 231.03 mm3 and 289.04 mm3 and 318.82 mm3 and 328.35 mm3
Tumor volume (A549 tumour xenograft; day 4): 227.06 mm3 and 262.12 mm3 and 188.92 mm3 and 409.05 mm3 and 274.16 mm3 and 314.25 mm3 and 306.21 mm3 and 369.92 mm3 and 481.58 mm3 and 366.82 mm3
Tumor volume (A549 tumour xenograft; day 7): 231.98 mm3 and 243.18 mm3 and 196.23 mm3 and 274.16 mm3 and 253.11 mm3 and 344.34 mm3 and 317.61 mm3 and 448.55 mm3 and 592.88 mm3 and 312.54 mm3
Tumor volume (A549 tumour xenograft; day 9): 261.94 mm3 and 301.83 mm3 and 219.73 mm3 and 302.82 mm3 and 326.12 mm3 and 416.63 mm3 and 335.28 mm3 and 487.15 mm3 and 592.89 mm3 and 371.89 mm3
Tumor volume (A549 tumour xenograft; day 11): 258.58 mm3 and 202.63 mm3 and 223.15 mm3 and 242.18 mm3 and 278.14 mm3 and 355.98 mm3 and 334.2 mm3 and 464.77 mm3 and 688.26 mm3 and 480.94 mm3
Tumor volume (A549 tumour xenograft; day 16): 301.85 mm3 and 268.43 mm3 and 297.84 mm3 and 244.81 mm3 and 221.75 mm3 and 393.39 mm3 and 329.71 mm3 and 573.4 mm3 and 713.65 mm3 and 552.3 mm3
Tumor volume (A549 tumour xenograft; day 18): 316.56 mm3 and 265.75 mm3 and 265.54 mm3 and 297.93 mm3 and 440.11 mm3 and 297.45 mm3 and 522.76 mm3 and 814.33 mm3 and 590.82 mm3
Tumor volume (A549 tumour xenograft; day 21): 331.26 mm3 and 257.14 mm3 and 246.03 mm3 and 472.38 mm3 and 341.87 mm3 and 428.61 mm3 and 821.5 mm3 and 487.26 mm3
Tumor volume (A549 tumour xenograft; day 23): 322.32 mm3 and 225.79 mm3 and 259.68 mm3 and 527.19 mm3 and 270.43 mm3 and 777.27 mm3 and 455.64 mm3
Bottom (best-fit value, % protein remaining) (SMARCA4; HCC4006_SM4): 9.858%
% protein remaining (SMARCA4; HCC4006_SM4, log10[concentration (mol/l)] -6): 8.466% and 14.8549% and 6.254%
% protein remaining (SMARCA4; HCC4006_SM4, log10[concentration (mol/l)] -8): 107.17% and 168.214% and 84.8869%
% protein remaining (SMARCA4; HCC4006_SM4, log10[concentration (mol/l)] -10): 87.4945% and 108.459% and 92.3747%
LogEC50 (SMARCA4; HCC4006_SM4): -7.029
DC50 (SMARCA4; HCC4006_SM4): 93.5 nM
Bottom (best-fit value, % protein remaining) (SMARCA4; HCC-364_SM4): 3.161%
HillSlope (SMARCA4; HCC-364_SM4): -1.653
% protein remaining (SMARCA4; HCC-364_SM4, log10[concentration (mol/l)] -6): 3.167% and 1.374% and 3.983%
% protein remaining (SMARCA4; HCC-364_SM4, log10[concentration (mol/l)] -7): 9.937% and 9.321% and 6.672%
% protein remaining (SMARCA4; HCC-364_SM4, log10[concentration (mol/l)] -8): 73.4926% and 97.1764% and 52.0353%
% protein remaining (SMARCA4; HCC-364_SM4, log10[concentration (mol/l)] -9): 95.3509% and 123.202% and 101.968%
% protein remaining (SMARCA4; HCC-364_SM4, log10[concentration (mol/l)] -10): 89.9664% and 104.013% and 115.065%
LogEC50 (SMARCA4; HCC-364_SM4): -7.78
DC50 (SMARCA4; HCC-364_SM4): 16.6 nM
Bottom (% protein remaining, four-parameter fit) (SMARCA4; HCT116, SM4): 25.06%
HillSlope (protein remaining) (SMARCA4; HCT116, SM4): -2.072
Top (% protein remaining, four-parameter fit) (SMARCA4; HCT116, SM4): 134.1%
% protein remaining (SMARCA4; HCT116, SM4, conc 9.54e-12 mol/l): 111.196% and 129.494%
% protein remaining (SMARCA4; HCT116, SM4, conc 3.81e-11 mol/l): 120.316% and 148.32%
% protein remaining (SMARCA4; HCT116, SM4, conc 1.53e-10 mol/l): 129.784% and 140.879%
% protein remaining (SMARCA4; HCT116, SM4, conc 6.1e-10 mol/l): 129.281% and 147.637%
% protein remaining (SMARCA4; HCT116, SM4, conc 2.44e-9 mol/l): 120.666% and 159.63%
% protein remaining (SMARCA4; HCT116, SM4, conc 9.77e-9 mol/l): 125.866% and 131.203%
% protein remaining (SMARCA4; HCT116, SM4, conc 3.91e-8 mol/l): 69.9313% and 71.3683%
% protein remaining (SMARCA4; HCT116, SM4, conc 1.56e-7 mol/l): 36.8806% and 32.4224%
% protein remaining (SMARCA4; HCT116, SM4, conc 6.25e-7 mol/l): 24.622% and 20.2431%
% protein remaining (SMARCA4; HCT116, SM4, conc 2.5e-6 mol/l): 26.4349% and 21.0447%
HillSlope (SMARCA4; HCT-15_SM4): -0.3445
% protein remaining (SMARCA4; HCT-15_SM4, log10[concentration (mol/l)] -6): 18.6748% and 17.1977% and 14.8633%
% protein remaining (SMARCA4; HCT-15_SM4, log10[concentration (mol/l)] -7): 73.6571% and 71.0762% and 61.1459%
% protein remaining (SMARCA4; HCT-15_SM4, log10[concentration (mol/l)] -8): 98.6414% and 84.1205% and 64.0182%
% protein remaining (SMARCA4; HCT-15_SM4, log10[concentration (mol/l)] -9): 109.23% and 94.5032% and 92.8527%
% protein remaining (SMARCA4; HCT-15_SM4, log10[concentration (mol/l)] -10): 99.1975% and 103.016%
Bottom (best-fit value, % protein remaining) (SMARCA4; LU99_SM4): 6.337%
HillSlope (SMARCA4; LU99_SM4): -1.201
% protein remaining (SMARCA4; LU99_SM4, log10[concentration (mol/l)] -8): 52.7226% and 80.027% and 88.2243% and 72.2723%
% protein remaining (SMARCA4; LU99_SM4, log10[concentration (mol/l)] -9): 95.2248% and 87.3538% and 102.946% and 96.8042%
% protein remaining (SMARCA4; LU99_SM4, log10[concentration (mol/l)] -10): 95.6247% and 91.3% and 105.138% and 100.656%
LogEC50 (SMARCA4; LU99_SM4): -7.559
DC50 (SMARCA4; LU99_SM4): 27.6 nM
Bottom (best-fit value, % protein remaining) (SMARCA4; SK-N-AS_SM4): 7.287%
HillSlope (SMARCA4; SK-N-AS_SM4): -0.8189
% protein remaining (SMARCA4; SK-N-AS_SM4, log10[concentration (mol/l)] -6): 10.7051% and 13.0346%
% protein remaining (SMARCA4; SK-N-AS_SM4, log10[concentration (mol/l)] -8): 53.489% and 73.7834%
% protein remaining (SMARCA4; SK-N-AS_SM4, log10[concentration (mol/l)] -9): 84.3752% and 77.8596%
% protein remaining (SMARCA4; SK-N-AS_SM4, log10[concentration (mol/l)] -10): 91.2323% and 74.8856%
LogEC50 (SMARCA4; SK-N-AS_SM4): -7.454
DC50 (SMARCA4; SK-N-AS_SM4): 35.2 nM
